Source: patent US10085950B2, “Pharmaceutical composition for cancer treatment containing gossypol and phenformin as active ingredients” (NATIONAL CANCER CENTER, priority 2014, dated 2018)

Columns and labels:
Type in all cases: cell-based
[1] = system: cancer cell lines A549/ATCC and NCI-H460; experiment: SRB analysis of single and combination treatment; conditions: 0.1-50 μM gossypol alone; FIGS. 5 and 6
Method: An SRB analysis was performed to examine the effect of gossypol on inhibiting the growth of cancer cell lines. Specifically, according to the doubling time of lung cancer cell lines, for example, A549/ATCC, HOP-62, HOP-92, NCI-H23, NCI-H460 or NCI-H522 cell lines, 5000 to 40000 cells were seeded per well and grown in a 96-well microtiter plate. After 24 hours, the cells were treated with […] of 0, 0.1, 1, 10 or 100 μM gossypol per well, and incubated at 37° C. for 48 hours. Subsequently, […] of 50% cold (4° C.) trichloroacetic acid (TCA) was added to each of the attached cell lines, and […] of 80% TCA was added to each of the suspended cell lines to fix the cells. Following the incubation of the plate at 4° C. for 1 to 3 hours, the TCA solution in the plate was discarded, and then the plate was rinsed with distilled water five times. The plate was dried at room temperature for approximately 12 to 24 hours, and then fixed cells were stained with […] of sulforhodamine B (SRB) at room temperature for 5 minutes. After staining, the plate was washed with 1% glacial acetic acid three times, and dried at room temperature for approximately 12 to 24 hours. The SRB dye was dissolved with 10 mM Trizma base, and an optical density was measured at 515 nm. The effect of gossypol on inhibiting cancer cells was represented as 50% growth inhibition (GI50). […]

[2] = system: non-small cell lung cancer (NSCLC) cell lines (A549, H460, Hop-92, H23); experiment: ATP level measurement with ATP assay kit after gossypol treatment; conditions: 1 μM gossypol for 1 hour; FIG. 1
Method: To examine whether energy generation in cancer cells was inhibited by gossypol, which is […], non-small cell lung cancer (NSCLC) cell lines, for example, an A549 cell line, an H460 cell line, an Hop-92 cell line and an H23 cell line, were treated with 1 μM gossypol for 1 hour, followed by measuring ATP levels using an ATP assay kit (Biovision; #K354-100). As a control, normal lung epithelial cells were used.

[3] = system: AMP-activated protein kinase (AMPK) phosphorylation in A549 lung cancer cell lines; experiment: AMPK phosphorylation by western blotting; conditions: 1 μM for 0, 8, 16 or 24 hours; 0, 0.1, 0.5 or 1 μM for 24 hours; FIG. 4
Method: To examine the anticancer effect according to the treatment time or concentration of gossypol, A549 lung cancer cell lines were treated with 1 μM gossypol for 0, 8, 16 or 24 hours, and then the phosphorylation of an AMP-activated protein kinase (AMPK), which is a critical protein for cancer cell division, was analyzed by western blotting.
Also, after the individual treatment of 0, 0.1, 0.5 or 1 μM gossypol for 24 hours, AMPK phosphorylation was also analyzed by western blotting.

A549 cell line = experiment: ATP level measurement according to gossypol concentration; conditions: 0, 0.1 or 1 μM gossypol for 1 hour; FIG. 2
Method: Also, to investigate a change of ATP levels according to the concentration of gossypol, an A549 cell line was treated with 0, 0.1 or 1 μM gossypol for 1 hour, followed by measuring ATP levels.

[4] = system: lung cancer cell lines (A549/ATCC, HOP-62, HOP-92, NCI-H23, NCI-H460, NCI-H522); experiment: SRB analysis of growth inhibition of lung cancer cell lines; conditions: 48 hours incubation, single treatment, FIG. 3, read-out: GI50 concentration (50% growth inhibition)
Method: An SRB analysis was performed to examine the effect of gossypol on inhibiting the growth of cancer cell lines. Specifically, according to the doubling time of lung cancer cell lines, for example, A549/ATCC, HOP-62, HOP-92, NCI-H23, NCI-H460 or NCI-H522 cell lines, 5000 to 40000 cells were seeded per well and grown in a 96-well microtiter plate. After 24 hours, the cells were treated with […] of 0, 0.1, 1, 10 or 100 μM gossypol per well, and incubated at 37° C. for 48 hours. Subsequently, […] of 50% cold (4° C.) trichloroacetic acid (TCA) was added to each of the attached cell lines, and […] of 80% TCA was added to each of the suspended cell lines to fix the cells. Following the incubation of the plate at 4° C. for 1 to 3 hours, the TCA solution in the plate was discarded, and then the plate was rinsed with distilled water five times. The plate was dried at room temperature for approximately 12 to 24 hours, and then fixed cells were stained with […] of sulforhodamine B (SRB) at room temperature for 5 minutes. After staining, the plate was washed with 1% glacial acetic acid three times, and dried at room temperature for approximately 12 to 24 hours. The SRB dye was dissolved with 10 mM Trizma base, and an optical density was measured at 515 nm. The effect of gossypol on inhibiting cancer cells was represented as 50% growth inhibition (GI50).

Cc1cc2c(C(C)C)c(O)c(O)c(C=O)c2c(O)c1-c1c(C)cc2c(C(C)C)c(O)c(O)c(C=O)c2c1O [gossypol]
growth of the cancer cells, single treatment [1]: hardly inhibited
levels of ATP production [2]: inhibited
AMPK phosphorylation [3]: increased depending on the treatment time and concentration
inhibition of the ATP production, concentration dependence (A549 cell line): dependent on the concentration of gossypol
GI50 [4]: 5 µM
